Measurements: paper PMC5218480 (PLoS ONE, 2017)

Tested on: MV-4-11 cells
Test: Gene expression microarray analysis (Affymetrix PrimeView) and GSEA
Type: cell-based, human
Set-up: RFU PODN (11730768_x_at) / Fold change /veh PODN (11730768_x_at) / RFU LINC00158 (11744669_a_at) / Fold change /veh LINC00158 (11744669_a_at) / RFU DUSP10 (11751237_a_at) / Fold change /veh DUSP10 (11751237_a_at) / RFU ID3 (11757404_x_at) / Fold change /veh ID3 (11757404_x_at) / RFU PLEKHG5 (11737974_s_at) / Fold change /veh PLEKHG5 (11737974_s_at) / RFU LRRC4B (11730491_at) / Fold change /veh LRRC4B (11730491_at) / RFU GIMAP4 (11747438_a_at) / Fold change /veh GIMAP4 (11747438_a_at) / RFU KRT8 (11758183_x_at) / Fold change /veh KRT8 (11758183_x_at) / RFU CNN1 (11734310_a_at) / Fold change /veh CNN1 (11734310_a_at) / RFU VPS37D (11726825_at) / Fold change /veh VPS37D (11726825_at) / RFU C10orf10 (11716522_x_at) / Fold change /veh C10orf10 (11716522_x_at) / RFU KIR2DL2 /// KIR2DL4 /// KIR2DL5A /// KIR2DL5B /// KIR2DS1 /// KIR2DS2 /// KIR2DS3 /// KIR2DS4 /// KIR3DL3 /// KIR3DL3 /// KIR3DS1 (11738374_at) / Fold change /veh KIR2DL2 /// KIR2DL4 /// KIR2DL5A /// KIR2DL5B /// KIR2DS1 /// KIR2DS2 /// KIR2DS3 /// KIR2DS4 /// KIR3DL3 /// KIR3DL3 /// KIR3DS1 (11738374_at) / RFU C1QL1 (11718748_at) / Fold change /veh C1QL1 (11718748_at) / RFU TMPRSS4 (11747572_a_at) / Fold change /veh TMPRSS4 (11747572_a_at) / RFU HAMP (11756126_x_at) / Fold change /veh HAMP (11756126_x_at) / RFU RNFT2 (11725882_a_at) / Fold change /veh RNFT2 (11725882_a_at) / RFU NR4A2 (11747474_a_at) / Fold change /veh NR4A2 (11747474_a_at) / RFU ABCC12 (11746883_a_at) / Fold change /veh ABCC12 (11746883_a_at) / RFU TMEM136 (11760407_x_at) / Fold change /veh TMEM136 (11760407_x_at) / RFU CLDN22 /// WWC2 (11732394_at) / Fold change /veh CLDN22 /// WWC2 (11732394_at) / RFU HLA-DPB1 (11760878_x_at) / Fold change /veh HLA-DPB1 (11760878_x_at) / RFU SPINT1 (11716480_a_at) / Fold change /veh SPINT1 (11716480_a_at) / RFU GAP43 (11754022_s_at) / Fold change /veh GAP43 (11754022_s_at) / RFU A4GNT (11735810_at) / Fold change /veh A4GNT (11735810_at) / RFU PRB3 (11715151_x_at) / Fold change /veh PRB3 (11715151_x_at) / RFU TUBB4B (11761932_at) / Fold change /veh TUBB4B (11761932_at) / RFU CAPN14 (11732068_a_at) / Fold change /veh CAPN14 (11732068_a_at) / RFU TMCC2 (11721928_a_at) / Fold change /veh TMCC2 (11721928_a_at) / RFU IRGQ (11745062_a_at) / Fold change /veh IRGQ (11745062_a_at) / RFU FAM174B (11720279_a_at) / Fold change /veh FAM174B (11720279_a_at) / RFU TMPRSS4 (11748680_a_at) / Fold change /veh TMPRSS4 (11748680_a_at) / RFU FAM212B (11763350_a_at) / Fold change /veh FAM212B (11763350_a_at) / RFU PLEKHG5 (11743358_a_at) / Fold change /veh PLEKHG5 (11743358_a_at) / RFU ZSCAN30 (11745921_a_at) / Fold change /veh ZSCAN30 (11745921_a_at) / RFU CMKLR1 (11741424_a_at) / Fold change /veh CMKLR1 (11741424_a_at) / RFU LOC101060620 /// MAPK8IP1 (11723275_at) / Fold change /veh LOC101060620 /// MAPK8IP1 (11723275_at) / RFU SPTSSB (11747773_x_at) / Fold change /veh SPTSSB (11747773_x_at) / RFU PRSS12 (11739890_at) / Fold change /veh PRSS12 (11739890_at) / RFU BIN1 (11741810_x_at) / Fold change /veh BIN1 (11741810_x_at) / RFU WNT11 (11732464_a_at) / Fold change /veh WNT11 (11732464_a_at) / RFU C10orf10 (11716521_a_at) / Fold change /veh C10orf10 (11716521_a_at) / RFU C5orf56 (11738089_at) / Fold change /veh C5orf56 (11738089_at) / RFU CYB561 (11721691_x_at) / Fold change /veh CYB561 (11721691_x_at) / RFU ANKRD19P (11752326_a_at) / Fold change /veh ANKRD19P (11752326_a_at) / RFU OR2T12 /// OR2T33 /// OR2T8 (11738714_s_at) / Fold change /veh OR2T12 /// OR2T33 /// OR2T8 (11738714_s_at) / RFU VCAN (11748164_a_at) / Fold change /veh VCAN (11748164_a_at) / RFU JSRP1 (11732532_at) / Fold change /veh JSRP1 (11732532_at) / RFU KRTAP10-11 (11738290_x_at) / Fold change /veh KRTAP10-11 (11738290_x_at) / RFU MYO3A (11730013_a_at) / Fold change /veh MYO3A (11730013_a_at) / RFU EBF3 (11725865_a_at) / Fold change /veh EBF3 (11725865_a_at) / RFU CAMK2N1 (11719241_x_at) / Fold change /veh CAMK2N1 (11719241_x_at) / RFU C5orf56 (11738088_a_at) / Fold change /veh C5orf56 (11738088_a_at) / RFU OLFML3 (11715873_a_at) / Fold change /veh OLFML3 (11715873_a_at) / RFU LOC100653217 /// NTM (11731650_a_at) / Fold change /veh LOC100653217 /// NTM (11731650_a_at) / RFU MAPK11 (11762145_a_at) / Fold change /veh MAPK11 (11762145_a_at) / RFU FIZ1 (11724087_x_at) / Fold change /veh FIZ1 (11724087_x_at) / RFU OASL (11726364_x_at) / Fold change /veh OASL (11726364_x_at) / RFU SOX15 (11748057_x_at) / Fold change /veh SOX15 (11748057_x_at) / RFU CD79A (11719716_a_at) / Fold change /veh CD79A (11719716_a_at) / RFU HIST1H1D (11736915_at) / Fold change /veh HIST1H1D (11736915_at) / RFU CASKIN2 (11723855_a_at) / Fold change /veh CASKIN2 (11723855_a_at) / RFU LOC730098 (11760151_x_at) / Fold change /veh LOC730098 (11760151_x_at) / RFU OR4N2 (11742367_at) / Fold change /veh OR4N2 (11742367_at) / RFU PRRT2 (11749266_a_at) / Fold change /veh PRRT2 (11749266_a_at) / RFU SNX32 (11753110_a_at) / Fold change /veh SNX32 (11753110_a_at) / RFU CDHR5 (11726645_a_at) / Fold change /veh CDHR5 (11726645_a_at) / RFU RCAN1 (11760418_a_at) / Fold change /veh RCAN1 (11760418_a_at) / RFU FAM167A (11723789_a_at) / Fold change /veh FAM167A (11723789_a_at) / RFU FAM26E (11764081_at) / Fold change /veh FAM26E (11764081_at) / RFU ISYNA1 (11749810_s_at) / Fold change /veh ISYNA1 (11749810_s_at) / RFU ACY1 (11761880_at) / Fold change /veh ACY1 (11761880_at) / RFU 11764098_at / Fold change /veh 11764098_at / RFU SAMD14 (11745864_x_at) / Fold change /veh SAMD14 (11745864_x_at) / RFU NPB (11741838_a_at) / Fold change /veh NPB (11741838_a_at) / RFU TMPRSS6 (11731388_a_at) / Fold change /veh TMPRSS6 (11731388_a_at) / RFU KRTAP10-2 (11738614_at) / Fold change /veh KRTAP10-2 (11738614_at) / RFU ARHGAP8 /// PRR5-ARHGAP8 (11727945_x_at) / Fold change /veh ARHGAP8 /// PRR5-ARHGAP8 (11727945_x_at) / RFU KRTAP5-7 /// NADSYN1 (11734609_at) / Fold change /veh KRTAP5-7 /// NADSYN1 (11734609_at) / RFU RASL12 (11751679_a_at) / Fold change /veh RASL12 (11751679_a_at) / RFU CDKN2B (11736163_a_at) / Fold change /veh CDKN2B (11736163_a_at) / RFU PRF1 (11729649_at) / Fold change /veh PRF1 (11729649_at) / RFU, ZNF638 /// ZNF638-IT1 / Fold change vs veh, ZNF638 /// ZNF638-IT1 / RFU, PANK3 / Fold change vs veh, PANK3 / RFU, SH3YL1 / Fold change vs veh, SH3YL1 / RFU, ZEB2 / Fold change vs veh, ZEB2 / RFU, NRIP1 / Fold change vs veh, NRIP1 / RFU, PTTG1IP / Fold change vs veh, PTTG1IP / RFU, CAPN2 / Fold change vs veh, CAPN2 / RFU, MED14 / Fold change vs veh, MED14 / RFU, SNORA58 / Fold change vs veh, SNORA58 / RFU, C1orf63 / Fold change vs veh, C1orf63 / RFU, LRRFIP1 / Fold change vs veh, LRRFIP1 / RFU, NDUFAF7 / Fold change vs veh, NDUFAF7 / RFU, SLC12A2 / Fold change vs veh, SLC12A2 / RFU, IBTK / Fold change vs veh, IBTK / RFU, ESF1 / Fold change vs veh, ESF1 / Fold change vs veh, TMEM50B / RFU, TAOK1 / Fold change vs veh, TAOK1 / RFU, ACBD3 / Fold change vs veh, ACBD3 / RFU, TMA16 / Fold change vs veh, TMA16 / RFU, RWDD3 / Fold change vs veh, RWDD3 / RFU, BCAT1 / Fold change vs veh, BCAT1 / RFU, EDEM3 / Fold change vs veh, EDEM3 / RFU, TMEM33 / Fold change vs veh, TMEM33 / RFU, WDR75 / Fold change vs veh, WDR75 / RFU, AHCTF1 / Fold change vs veh, AHCTF1 / RFU, TFRC / Fold change vs veh, TFRC / RFU, ZDHHC17 / Fold change vs veh, ZDHHC17 / RFU, NOM1 / Fold change vs veh, NOM1 / RFU, ARL8B / Fold change vs veh, ARL8B / RFU, ZBTB11 / Fold change vs veh, ZBTB11 / RFU, TAMM41 / Fold change vs veh, TAMM41 / RFU, KIAA1704 /// LOC100996395 / Fold change vs veh, KIAA1704 /// LOC100996395 / RFU, ING1 / Fold change vs veh, ING1 / RFU, TRMT61B / Fold change vs veh, TRMT61B / RFU, FUBP3 / Fold change vs veh, FUBP3 / RFU, TP53 / Fold change vs veh, TP53 / RFU, TNKS2 / Fold change vs veh, TNKS2 / RFU, ZFP14 / Fold change vs veh, ZFP14 / RFU, ACTR2 / Fold change vs veh, ACTR2 / RFU, PPP3R1 / Fold change vs veh, PPP3R1 / RFU, PIK3R1 / Fold change vs veh, PIK3R1 / RFU, HNRNPA1 / Fold change vs veh, HNRNPA1 / RFU, RNF170 / Fold change vs veh, RNF170 / RFU, ZNF28 / Fold change vs veh, ZNF28 / RFU, RNGTT / Fold change vs veh, RNGTT / RFU, OGT / Fold change vs veh, OGT / RFU, BRD1 / Fold change vs veh, BRD1 / RFU, MARS / Fold change vs veh, MARS / RFU, ZNF655 / Fold change vs veh, ZNF655 / RFU, FAHD1 / Fold change vs veh, FAHD1 / RFU, BDP1 / Fold change vs veh, BDP1 / RFU, LRRCC1 / Fold change vs veh, LRRCC1 / RFU, ARID1A / Fold change vs veh, ARID1A / RFU, ZNF146 / Fold change vs veh, ZNF146 / RFU, ZNF330 / Fold change vs veh, ZNF330 / RFU, GPN3 / Fold change vs veh, GPN3 / RFU, C9orf123 / Fold change vs veh, C9orf123 / RFU, N4BP2L2 / Fold change vs veh, N4BP2L2 / RFU, ARFIP1 / Fold change vs veh, ARFIP1 / RFU, FAM179B / Fold change vs veh, FAM179B / RFU, BCL10 / Fold change vs veh, BCL10 / RFU, UHRF1BP1L / Fold change vs veh, UHRF1BP1L / RFU, BET1 / Fold change vs veh, BET1 / RFU, CNOT2 / Fold change vs veh, CNOT2 / RFU, ZNF268 / Fold change vs veh, ZNF268 / Fold change vs veh, ZNF507 / RFU, DGCR2 / Fold change vs veh, DGCR2 / RFU, WDSUB1 / Fold change vs veh, WDSUB1 / Fold change vs veh, HSP90B1 /// MIR3652 / RFU, ADSS / Fold change vs veh, ADSS / RFU, GK / Fold change vs veh, GK / RFU, ZNF148 / Fold change vs veh, ZNF148 / RFU, TAF9 / Fold change vs veh, TAF9 / RFU, SLC1A5 / Fold change vs veh, SLC1A5 / RFU, SLMO2 / Fold change vs veh, SLMO2 / RFU, ABCC4 / Fold change vs veh, ABCC4 / RFU, LOC101060439 /// RAP1B / Fold change vs veh, LOC101060439 /// RAP1B / RFU, RFX7 / Fold change vs veh, RFX7 / RFU, GTPBP10 / Fold change vs veh, GTPBP10 / RFU, CNEP1R1 / Fold change vs veh, CNEP1R1 / RFU, BIVM-ERCC5 /// ERCC5 / Fold change vs veh, BIVM-ERCC5 /// ERCC5 / RFU, ILF3 / Fold change vs veh, ILF3 / RFU 11762660_at / Fold change /veh 11762660_at / RFU VCAN (11757783_s_at) / Fold change /veh VCAN (11757783_s_at) / RFU DDX43 (11728927_at) / Fold change /veh DDX43 (11728927_at) / RFU KRT8 (11758188_x_at) / Fold change /veh KRT8 (11758188_x_at) / RFU NKD1 (11759106_at) / Fold change /veh NKD1 (11759106_at) / RFU SRD5A1 (11742802_a_at) / Fold change /veh SRD5A1 (11742802_a_at) / RFU TPSAB1 /// TPSB2 (11721975_s_at) / Fold change /veh TPSAB1 /// TPSB2 (11721975_s_at) / RFU GSTM3 (11746129_a_at) / Fold change /veh GSTM3 (11746129_a_at) / RFU IL23R (11737362_x_at) / Fold change /veh IL23R (11737362_x_at) / RFU TMEM51 (11727254_a_at) / Fold change /veh TMEM51 (11727254_a_at) / RFU PIWIL2 (11732686_x_at) / Fold change /veh PIWIL2 (11732686_x_at) / RFU ORM1 (11744905_x_at) / Fold change /veh ORM1 (11744905_x_at) / RFU CCDC152 (11743942_at) / Fold change /veh CCDC152 (11743942_at) / RFU ECM1 (11717891_a_at) / Fold change /veh ECM1 (11717891_a_at) / RFU IL23R (11748794_a_at) / Fold change /veh IL23R (11748794_a_at) / RFU TNFAIP8L3 (11732012_x_at) / Fold change /veh TNFAIP8L3 (11732012_x_at) / RFU MBOAT4 (11741988_at) / Fold change /veh MBOAT4 (11741988_at) / RFU 11764193_at / Fold change /veh 11764193_at / RFU TMEM53 (11763286_at) / Fold change /veh TMEM53 (11763286_at) / RFU MAGEB2 (11727129_at) / Fold change /veh MAGEB2 (11727129_at) / RFU TMEM200A (11744735_a_at) / Fold change /veh TMEM200A (11744735_a_at) / RFU CCDC152 (11751479_a_at) / Fold change /veh CCDC152 (11751479_a_at) / RFU FAM211A (11726209_a_at) / Fold change /veh FAM211A (11726209_a_at) / RFU RGS16 (11746705_a_at) / Fold change /veh RGS16 (11746705_a_at) / RFU VCAN (11755009_s_at) / Fold change /veh VCAN (11755009_s_at) / RFU RHOB (11743442_s_at) / Fold change /veh RHOB (11743442_s_at) / RFU RGS16 (11720943_a_at) / Fold change /veh RGS16 (11720943_a_at) / RFU RGS16 (11720944_at) / Fold change /veh RGS16 (11720944_at) / RFU, VPS4B / Fold change vs veh, VPS4B / RFU, CREB1 / Fold change vs veh, CREB1 / RFU, DNAJC13 / Fold change vs veh, DNAJC13 / RFU, GNAQ / Fold change vs veh, GNAQ / RFU, CDK5R1 / Fold change vs veh, CDK5R1 / RFU, ZRANB3 / Fold change vs veh, ZRANB3 / RFU, CUL4A / Fold change vs veh, CUL4A / RFU, CCNY / Fold change vs veh, CCNY / RFU, UFL1 / Fold change vs veh, UFL1 / RFU, COG3 / Fold change vs veh, COG3 / RFU, DIAPH2 / Fold change vs veh, DIAPH2 / RFU, SKA2 / Fold change vs veh, SKA2 / RFU, AFF3 / Fold change vs veh, AFF3 / RFU, LMF1 / Fold change vs veh, LMF1 / RFU, IPO11 / Fold change vs veh, IPO11 / RFU, DFFB / Fold change vs veh, DFFB / RFU, FOXP1 / Fold change vs veh, FOXP1 / RFU, CARD8 / Fold change vs veh, CARD8 / RFU, STRN3 / Fold change vs veh, STRN3 / RFU, ADK / Fold change vs veh, ADK / RFU, RASSF2 / Fold change vs veh, RASSF2 / RFU, WIPF1 / Fold change vs veh, WIPF1 / RFU, LARP1B / Fold change vs veh, LARP1B / RFU, RASA1 / Fold change vs veh, RASA1 / RFU, RB1 / Fold change vs veh, RB1 / RFU, PPFIA1 / Fold change vs veh, PPFIA1 / RFU, MAT2A / Fold change vs veh, MAT2A / RFU, CCT5 / Fold change vs veh, CCT5 / RFU, WDR92 / Fold change vs veh, WDR92 / RFU, CUX1 / Fold change vs veh, CUX1 / RFU, TTC7A / Fold change vs veh, TTC7A / RFU, TMEM135 / Fold change vs veh, TMEM135 / RFU, DEPTOR / Fold change vs veh, DEPTOR / RFU, CPM / Fold change vs veh, CPM / RFU, DNAJB6 / Fold change vs veh, DNAJB6 / RFU, CACNA2D3 / Fold change vs veh, CACNA2D3 / RFU, DTX4 / Fold change vs veh, DTX4 / RFU, TFCP2 / Fold change vs veh, TFCP2 / RFU, GMCL1 /// GMCL1P1 / Fold change vs veh, GMCL1 /// GMCL1P1 / RFU, AEBP2 / Fold change vs veh, AEBP2 / RFU, SNHG1 /// SNORD22 /// SNORD25 /// SNORD26 /// SNORD27 /// SNORD28 /// SNORD29 /// SNORD31 / Fold change vs veh, SNHG1 /// SNORD22 /// SNORD25 /// SNORD26 /// SNORD27 /// SNORD28 /// SNORD29 /// SNORD31 / Fold change (Aza/veh), C12orf56 (ProbeSet 11735607_a_at) / Fold change (ACY-1035/veh), C12orf56 (ProbeSet 11735607_a_at) / Fold change (Aza/veh), FGFR1OP (ProbeSet 11751329_s_at) / Fold change (ACY-1035/veh), FGFR1OP (ProbeSet 11751329_s_at) / Fold change (Aza/veh), VPS36 (ProbeSet 11739960_a_at) / Fold change (ACY-1035/veh), VPS36 (ProbeSet 11739960_a_at) / RFU SYPL1 (11715823_x_at) / Fold change /veh SYPL1 (11715823_x_at) / RFU IGFBP7 (11715501_s_at) / Fold change /veh IGFBP7 (11715501_s_at) / RFU REEP3 (11722064_at) / Fold change /veh REEP3 (11722064_at) / RFU IGLL1 (11728026_x_at) / Fold change /veh IGLL1 (11728026_x_at): dose or concentration left out as unconfirmed
Conditions: MV-4-11 cells, 48 hours

Nc1ncn([C@@H]2O[C@H](CO)[C@@H](O)[C@H]2O)c(=O)n1 [azacitidine]
Fold change /veh DUSP10 (11751237_a_at): 1.16
